Data: US20070265196A1, “Method of Modulating Pro-Inflammatory and Inflammatory Activity Mediated by C-Reactive Protein” (MEDVET SCIENCE PTY., LTD., priority 2004, published 2007)
Entries after “also recorded” stand apart in the source; their conditions may differ.

Assays:
[1] = system: HUVEC expression of E-selectin, VCAM-1 and ICAM-1; assay: Induction of adhesion molecule expression in HUVEC by the substance itself (flow cytometry); format: cell-based, human; conditions: for effect of heating at 65° C. for 1 hour on activity (E-selectin induction): heated 65° C., serum free medium
Protocol: (§1) Human umbilical vein endothelial cells (HUVEC) and bovine aortic endothelial cells (BAEC) were isolated and cultured as described previously (Wall et al (1978)). Cells were used at passages 2 to 3 for HUVEC and passages 3-10 for BAEC. For detection of adhesion molecules, HUVEC were incubated overnight in Opti-MEM serum free medium (Gibco, Invitrogen Corporation) in the presence or absence of HDL and then treated with recombinant human C-reactive protein (Calbiochem) for 5 hrs unless indicated otherwise. After the treatment, cells were washed with medium M199 and incubated with primary monoclonal antibodies against E-selectin, VCAM-1, ICAM-1 or isotype-matched nonrelevant control antibodies for 30 min as described previously (Gamble et al (1993)). Cells were then incubated with fluorescein isothiocyanate-conjugated secondary antibody for 30 min. The cells were then harvested by trypsinization and fixed in 2.5% formaldehyde (antibody binding prior to trypsinizing has been reported to prevent the partial hydrolyzation of the surface adhesion molecules (Grabner et al (2000))). The expression of cell-surface adhesion molecules was measured as fluorescence intensity by use of a Coulter Epics Profile XL flow cytometer. Unless stated otherwise, the results represent mean fluorescence of the positive population±SEM from one experiment and are representative at least three independent experiments. Differences between means were evaluated by Student's t-tests. ANOVA was used to identify statistical significance of multiple comparisons.

[2] = system: C-reactive protein-induced expression of E-selectin, VCAM-1 and ICAM-1; assay: Inhibition of C-reactive protein-induced cell-surface adhesion molecule expression in HUVEC (flow cytometry); format: cell-based, human; conditions: for effect on C-reactive protein-induced expression of adhesion molecules (E-selectin, ICAM-1, VCAM-1): 16 hrs preincubation in serum-free medium, then C-reactive protein 10 μg/ml for 5 hrs; for effect of antioxidant on PLPC-dependent inhibition of C-reactive protein-induced E-selectin expression: HUVEC preincubated 16 hrs with 35 μM PLPC in presence of the antioxidant
Protocol: as §1
As described previously (Ashby et al (1998)) the lipoproteins were isolated from normal healthy adult donors by sequential ultracentrifugation in their appropriate density range: total HDL 1.07<d<1.21 and LDL 1.019<d<1.055 g/ml. The resulting preparations of lipoproteins were dialyzed against endotoxin-free PBS (pH 7.4) prior to use. Discoidal reconstituted HDL containing apoA-I and PLPC, were prepared by the cholate dialysis method described by Matz (1982). Small unilamellar vesicles (SUVs) containing either PLPC or 1-palmitoyl-2-oleoyl-sn-glycero-3-phosphocholine (POPC), in butylated hydroxytoluene (BHT) (molar ratio of PC to BHT, 10:1), were prepared in PBS precisely as described by Jonas (1986). Oxidation of SUV was produced by incubation with 5 μM CuSO4 in the absence of BHT for 48 hours at 37° C.

[3] = system: adherence of U937 cells to C-reactive protein-activated BAEC; assay: Adherence of U937 cells to C-reactive protein-treated BAEC; format: cell-based, bovine; conditions: BAEC incubated with C-reactive protein for 24 hours
Protocol: U937 cells (CRL 1593.2; ATCC) were colorimetrically labelled with 0.2 mg/ml 3-(4,5-dimethylthiazol-2-yl)-2,5-diphenyltetrazolium bromide (MTT; Promega) in normal culture medium for 30 min at 37° C. The cells were collected by low-speed centrifugation and resuspended at a density of 2×10^5 cells/ml in medium without FCS. BAECs were seeded into 24-well plates and treated as desired in triplicate. After the treatment, BAECs were washed twice with RPMI-1640 medium. The MTT-labelled U937 cell suspension (200 μl/well) was then added into the BAEC cultures and incubated for 30 min at 37° C. Non-adherent cells were removed by rinsing the plates three times with PBS, and the number of adherent cells was counted under microscopy at least 4 fields per well.

CCCCC/C=C\C/C=C\CCCCCCCC(=O)OC(COC(=O)CCCCCCCCCCCCCCC)COP(=O)([O-])OCC[N+](C)(C)C (stereo not drawn) [PLPC]
effect of the substance alone on adhesion molecule expression ([1]; HUVEC): had no effect | C-reactive protein-induced E-selectin expression, substance added simultaneously with C-reactive protein ([2]; HUVEC, 35 μM, C-reactive protein 10 μg/ml 5 hrs, no pre-incubation): not | inhibitory effect on C-reactive protein-induced adhesion molecule expression after 1-hour pre-incubation ([2]; HUVEC, 1-hour pre-incubation): no inhibitory effect | inhibitory effect on C-reactive protein-induced adhesion molecule expression when added simultaneously with C-reactive protein ([2]; HUVEC, no pre-incubation): no inhibitory effect | persistence of inhibitory effect when removed from the medium after 16-hour pre-incubation before C-reactive protein activation ([2]; HUVEC, washout): did not persist

CCCCCCCC/C=C\CCCCCCCC(=O)O[C@H](COC(=O)CCCCCCCCCCCCCCC)COP(=O)([O-])OCC[N+](C)(C)C [POPC SUVs, 1-palmitoyl-2-oleoyl-sn-glycero-3-phosphocholine]
effect on C-reactive protein-induced expression of adhesion molecules (E-selectin, ICAM-1, VCAM-1) ([2]; HUVEC): no inhibitory effect | effect of CuSO4-exposed phospholipid on C-reactive protein-induced adhesion molecule expression ([2]; HUVEC, control exposed to CuSO4): did not affect

CC(Cc1ccc(O)c(O)c1)C(C)Cc1ccc(O)c(O)c1 (stereo not drawn) [nordihydroguaiaretic acid]
effect of antioxidant on PLPC-dependent inhibition of C-reactive protein-induced E-selectin expression [2]: reversed in a dose-dependent manner | effect of antioxidant on PLPC-dependent inhibition of C-reactive protein-induced E-selectin expression ([2]; listed as NDGA): completely abolish

C[N+](C)(C)CCOP(=O)(O)O [phosphorylcholine]
effect on the C-reactive protein's activity ([2]; up to 100 μM added to the medium): had no effect

CCCCCCCCCCC[C@@H](C[C@@H]1OC(=O)[C@H]1CCCCCC)OC(=O)[C@H](CC(C)C)NC=O [tetrahydrolipstatin]
effect of lipase inhibitor treatment of cells on the anti-inflammatory activity of PLPC ([2]; HUVEC): not affected

Cc1c(C)c2c(c(C)c1O)CC[C@@](C)(CCC[C@H](C)CCC[C@H](C)CCCC(C)C)O2 [α-tocopherol]
effect of the substance alone on adhesion molecule expression ([1]; HUVEC): had no effect | effect of antioxidant on PLPC-dependent inhibition of C-reactive protein-induced E-selectin expression [2]: reversed in a dose-dependent manner; also recorded: completely abolish

C-reactive protein: recombinant human C-reactive protein (Calbiochem), proinflammatory stimulus
concentration at which dose-dependent activity reaches a maximum ([1]; E-selectin expression, HUVEC stimulated 5 hrs): 10 to 20 µg/mL | cell surface expression of E-selectin VCAM-1 and ICAM-1 ([1]; HUVEC treated with C-reactive protein (10 μg/ml, 5 hrs)): significant increase | inflammatory effect in fresh serum-free medium ([1]; HUVEC, fresh (unconditioned) serum-free medium): no inflammatory effect | effect of heating at 65° C. for 1 hour on activity (E-selectin induction) ([1]; HUVEC): completely eliminated | increase in adhesion of U937 cells to BAEC [3]: more than 6 fold

Lipopolysaccharide [LPS]
induction of adhesion molecule expression ([1]; HUVEC, concentrations of up to 1 ng/ml): insufficient to induce | effect of heating at 65° C. for 1 hour on activity (E-selectin induction) ([1]; HUVEC): did not alter

lipid-free apoA-I: lipid-free apolipoprotein A-I, the protein component of rHDL
effect on C-reactive protein-induced expression of adhesion molecules (E-selectin, ICAM-1, VCAM-1) ([2]; HUVEC): had no effect
